Measurements taken from patent publication US7205261B2, “Use of certain N-acylethanolamines to achieve ethylene- and cytokinin-like effects in plants and fungi” (Nutra-Park, Inc., priority 2002, dated 2007).
Read-outs that look alike come from different tables or passages of the source.

Tests used:
[1] = tested on: Raphanus sativus L. cv. Cherry Belle cotyledons; test: Radish cotyledon bioassay (expansion growth and chlorophyll accumulation); assay type: in vivo; design: Chlorophyll a + b: unit not given here; conditions: for Change in fresh weight: continuous illumination, 25° C., ten cotyledons; for activity at 20 µg/mL: Raphanus sativus, read-out: Change in fresh weight, % of control
Excerpt: Radish cotyledon bioassay: This bioassay using Raphanus sativus L. cv. Cherry Belle cotyledons was developed by Letham, DS (Physiologia Plantarum 25, 391–396, 1971, incorporated by reference in its entirety) to evaluate the efficacy of cytokinin on cell enlargement. Success using this assay is not restricted to radish. […] In addition to their effect on cell division, cytokinin plays a major role in driving cell enlargement. Compounds in this class of phytohormone and with cytokinin activity also help maintain photosynthetic activity and productivity and abolish proteolytic activity. In cotyledon leaf systems, a requirement for cytokinin is critical and removal of the roots (i.e. the presumed source of cytokinin) renders the cotyledon leaves unable to expand. Exposure to cytokinin (0.02–22 μg/ml) results in a dramatic increase in fresh weight of cotyledons within 72 hours. This effect is not observed with either gibberellin or auxin and is usually delayed or inhibited by abscisic acid and the ethylene precursor, 1-aminocyclopropane-1-carboxylic acid (ACC). […] Thus, the mode of action of cytokinin in this system appears to be similar to that of indole-3-acetic acid (IAA) in auxin-induced stem elongation, a process that depends on an increase in the mechanical extensibility of the cell wall. However, cytokinin antagonizes IAA-mediated cell elongation and appears to do so by promoting ethylene production. Furthermore, cytokinin-induced cell expansion is not usually accompanied by proton (H^+) extrusion and no change in plasma membrane ATPase activity is evident.
Seeds of Raphanus sativus L. cv. Cherry-Belle were germinated in darkness at 24° C. for 36 h in Petri dishes containing filter paper wetted with distilled water. The smaller of the two cotyledons was excised, the fresh weight determined, and 10 cotyledons placed adaxial side down on filter paper in Petri dishes containing 10 ml of KPO4 buffer (2 mM, pH 6.0) and the compounds to be tested at 20 mg/l. […] Chlorophyll content was determined after extraction of tissue into 80% ethanol (containing butylated hydroxytoluene (BHT) 10 mg/l) using the equations Chl a=(13.95A663)−(6.88A647) and Chl b=(24.96A652)−(7.32A663) as described by Lichtenthaler, HK, Methods in Enzymology 148: 350–382, 1987, incorporated by reference in its entirety. FIG. 6 illustrates the difference in cotyledon size in response to the cytokinin kinetin.

maize roots = test: Corn root bioassay (ethylene production by maize roots); assay type: in vivo, Zea mays L.; conditions: for activity at 20 µg/mL: Zea mays, read-out: Ethylene, % of control; for activity at 20 µg/mL / Ethylene / Ethylene, % of control: 20 mg/l; for increase of ethylene production (in words): other experiments using a different treatment time
Method: Corn root bioassay: It is well established that roots of Zea mays produce ethylene when exposed to a variety of stresses (for review, see Morgan, PW and Drew, MC, Physiologia Plantarum 100: 620–630, 1997). Mechanical impedance and hypoxia both induce ethylene formation and usually as early as 1 hour after exposure. In response to ethylene treatment, maize roots show decreased expansion and elongation, a high incidence of cell death and the formation of aerenchyma tissue—particularly evident when roots are exposed to hypoxic conditions (Drew, MC et al., Trends in Plant Science 5: 123–127, 2000, Morgan and Drew 1997).
Seeds of Zea mays L. were sown in flats of Perlite, covered with a layer of vermiculite, and irrigated daily with water and/or 1/10 Hoagland solution. Seedlings were cultivated under continuous illumination at 22–25° C. and used when 7 d old. Seedlings were removed from the Perlite and washed under running tap water. Seedlings were allowed to acclimate in water and/or 1/10 Hoagland solution for several hours before being transferred to Falcon tubes containing the test compounds (all 20 mg/l) prepared in 1/10 Hoagland solution. […] Roots were then transferred to gas-tight tubes each containing 200 μl of water. The tubes were sealed and incubated at 26° C. for 1–2 h in darkness before gas samples were drawn from the incubation tubes using a 1 ml syringe and assayed by gas chromatography (Romera, FJ et al. (1999) Annals of Botany 83, 51–55).

[2] = experiment 1, 72 h illumination, roots incubated 2 h in gas tight tubes
[3] = experiment 2, 36 h illumination, roots incubated 2 h in darkness at 24° C.
[4] = Table 2, 72 h incubation, 20 mg/l
[5] = summary statement in the description
[6] = Table 3, 48 h incubation, 20 mg/l

Compound | Chlorophyll a/b ([1]; Experiment 1, 20 mg/l, 72 h) | Change in fresh weight ([1]; Experiment 1, 20 mg/l, 72 h) [mg] | Chlorophyll (mg/g FW) a + b ([1]; Experiment 2, 20 mg/l, 48 h) [mg/g FW] | Chlorophyll (μg/cotyledon) a + b ([1]; Experiment 2, 20 mg/l, 48 h) [μg/cotyledon] | Chlorophyll a/b ([1]; Experiment 2, 20 mg/l, 48 h) | Change in fresh weight ([1]; Experiment 2, 20 mg/l, 48 h) [mg] | activity at 20 µg/mL ([1]; Experiment 1, 20 mg/l, 72 h) [%] | activity at 20 µg/mL ([1]; Experiment 2, 20 mg/l, 48 h) [%] | activity at 20 µg/mL (maize roots; experiment 1, 72 h) [%] | activity at 20 µg/mL (maize roots; experiment 2, 36 h) [%] | Ethylene (maize roots; [2]) [nL/g FW/h] | Ethylene (maize roots; [3]) [pmol/g FW/h] | increase of ethylene production (in words) (maize roots) | Chlorophyll a + b ([1]; Experiment 1, 20 mg/l, 72 h) | cotyledon expansion (in words) [1, 4] | ethylene-like activities (summary of the examples) [1, 5] | hormone-like activity with respect to expansion growth (in words) [1, 6] | other results
NC1(C(=O)O)CC1 [ACC, 1-aminocyclopropane-1-carboxylic acid, reference compound] | 3.7 | 5.54 ± 2.87 | 1.42 | 12.27 | 1.8 | 4.25 ± 0.63 | 40 | 52 |  |  |  |  |  |  |  |  |  | 
c1coc(CNc2ncnc3[nH]cnc23)c1 [Kinetin, kinetin, reference compound] | 1.2 | 23.74 ± 7.92 | 0.81 | 25.78 | 1.8 | 27.26 ± 2.88 | 169 | 336 |  |  |  |  |  |  |  |  |  | 
O=CNCCO [NAE-1, N-Formyl-2-aminoethanol] | 1.7 | 7.61 ± 3.42 | 1.62 | 21.19 | 2.0 | 8.68 ± 1.70 | 54 | 107 | 175 | 157 | 1034.4 ± 255.3 | 45.32 ± 18.98 | effective | 0.59 | significantly slowed cotyledon expansion | ethylene-like activities |  | 
CC(=O)NCCO [NAE-2, N-Acetyl-2-aminoethanol] | 1.3 | 12.52 ± 2.83 | 1.94 | 19.88 | 2.0 | 5.86 ± 1.36 | 89 | 72 | 146 | 160 |  | 45.96 ± 12.53 |  |  |  | ethylene-like activities | ethylene-like activity | chlorophyll accumulation (in words) [1, 4]: greater effect than other NAEs; cotyledon expansion (in words) [1, 6]: slowed cotyledon expansion
CCCC(=O)NCCO [NAE-4:0, N-Butyroyl-2-aminoethanol] |  |  | 2.00 | 23.49 | 1.9 | 7.15 ± 1.16 |  | 88 |  |  |  |  | effective |  |  | ethylene-like activities | ethylene-like activity | cytokinin-like activities (summary of the examples) [1, 5]: cytokinin-like activities
CCCCCC(=O)NCCO [NAE-6:0, N-Hexanoly-2-aminoethanol] | 1.6 | 8.04 ± 3.86 | 1.73 | 19.80 | 2.0 | 7.02 ± 0.98 |  |  |  |  | 1244.0 ± 406.2 | 40.58 ± 11.85 |  | 0.65 | significantly slowed cotyledon expansion | ethylene-like activities | ethylene-like activity | Ethylene, % of control (maize roots; Experiment 1, 72 h): 210%; Ethylene, % of control (maize roots; experiment 2, 36 h): 141%; relative efficacy on ethylene formation (in words) (maize roots; first experiment (Table 4)): strongest effect; Change in fresh weight, % of control ([1]; Experiment 1, 20 mg/l, 72 h): 57%; Change in fresh weight, % of control ([1]; Experiment 2, 20 mg/l, 48 h): 87%
